Experiments:
[1] = biological target: T1, bromodomain protein BRD4 BD1 (Homo sapiens, UniProt O60885); experiment: HTRF in vitro assay, inhibitory activity against BRD4 BD1; assay type: binding; details: BRD4(1) 30 nM in final system
T1 construct: The proteins BRD4 BD1/BD2 used in the experiment were purchased from Active Motif Company (Cat. No. 31380/31446); purchased Active Motif 31380
Procedure: In this example, the half inhibitory activity (IC50) of the compounds of the present invention against the bromodomain protein BRD4 BD1 was determined.
(§1) The inhibitory activity of the compound against BRD4 BD1 was determined by using Homogeneous Time-Resolved Fluorescence (HTRF).
(§2) The proteins BRD4 BD1/BD2 used in the experiment were purchased from Active Motif Company (Cat. No. 31380/31446); Streptavidin XL-665 (#610SAXLA) and EPIgeneous Binding Domain Kit A (#62BDAPEG) were purchased from Cisbio Bioassays Company, [Lys(5,8,12,16)Ac]H4(1-21)-biotin (#64989), and [Lys(5,8,12,16)Ac]H4(1-25) were products of AnaSpec company; OTX015 and ABBV-075 were purchased from SelleckChem. 384 Well ProxiPlate (#6008280) was purchased from PerkinElmer. The multifunctional microplate reader used for the experimental was a product of PerkinElmer, model: Envision 2104. The experimental water was Millipore-Q pure water.
(§3) 10 mM of stock solution of compound in DMSO was diluted to 1 mM with DMSO and stored, and then diluted 10 times with Binding Domain dilution buffer (purchased from Cisbio Bioassays) for use (the concentration of DMSO in the final system was […]), 1:5 gradient dilution, a total of 5 concentrations.
(§4) 4. Test Method: 1 Batch, 2 Duplicate Wells
(§5) • 1) 5 μL of test compound was transferred to 45 μL of Binding Domain dilution buffer. • 2) 2 μL of 10× compound (4 μL Binding Domain dilution buffer: positive control; 6 μL enzyme buffer (purchased from Cisbio Bioassays): negative control) was transferred to the reaction plate. • 3) 4 μL of 5×BRD4(1) or BRD4(2) (30 nM in final system) was added to the reaction plate. • 4) 4 μL of 5×[Lys(5,8,12,16)Ac]H4(1-21)-biotin was added to the reaction plate, and the plate was covered with a film, and incubated at 37° C. for 30 min. • 5) A detection mixture of SA-XL665 (2×) and anti-H3K9me0-Eu(K) (2×) was prepared in detection buffer (purchased from Cisbio Bioassays). • 6) 10 μL of detection mixture (2×) was added to each well, and incubated for 3 h at room temperature, and the mp value was read using a multi-plate reader Envision. The parameters were set as follows.

[2] = biological target: T2, bromodomain protein BRD4 BD2 (Homo sapiens, UniProt O60885); experiment: HTRF in vitro assay, inhibitory activity against BRD4 BD2; assay type: binding; details: BRD4(2) 30 nM in final system
T2 construct: The proteins BRD4 BD1/BD2 used in the experiment were purchased from Active Motif Company (Cat. No. 31380/31446); purchased Active Motif 31446
Procedure: as §1, §2, §3, §4, §5

Compound	IC50 [1] [µM]	IC50 [2] [µM]
CCNC(=O)c1cc2c(-c3cc(CO)c4ccccc4c3C3CC3)cn(C)c(=O)c2[nH]1 [Compound A32, 4-(1-cyclopropyl-4-(hydroxymethyl)naphthalen-2-yl)-N-ethyl-6-methyl-7-oxo-6,7-dihydro-1H-pyrrolo[2,3-c]pyridin-2-carboxamide]	0.01 to 0.1	≤ 0.01
CC(c1ccccc1)c1cn(C)c(=O)c2cc(-c3cn(C)nc3N)sc12 (centres unmarked) [Compound A42, 2-(3-amino-1-methyl-1H-pyrazol-4-yl)-5-methyl-7-(1-phenylethyl)thieno[3,2-c]pyridin-4(5H)-one]	0.1 to 1	0.01 to 0.1
COc1ccc(C(c2ccccc2)c2cn(C)c(=O)c3[nH]c(C(=O)Nc4cnn(C)c4)cc23)cc1 (centres unmarked) [Compound A38, 4-((4-methoxyphenyl)(phenyl)methyl)-6-methyl-N-(1-methyl-1H-pyrazol-4-yl)-7-oxo-6,7-dihydro-1H-pyrrolo[2,3-c]pyridin-2-carboxamide]	0.1 to 1	0.01 to 0.1
CC(c1ccccc1)c1cn(C)c(=O)c2[nH]c(-c3cnn(C4COC4)c3)cc12 (centres unmarked) [Compound A17, 6-methyl-2-(1-(oxetan-3-yl)-1H-pyrazol-4-yl)-4-(1-phenethyl)-1,6-dihydro-7H-pyrrolo[2,3-c]pyridin-7-one]	0.1 to 1	≤ 0.01
CCNC(=O)c1cc2c(C(C)c3ccc4ccccc4c3)cn(C)c(=O)c2[nH]1 (centres unmarked) [Compound A25]	0.1 to 1	0.01 to 0.1
CC(c1ccccc1)c1cn(C)c(=O)c2cc(-c3n[nH]cc3N)oc12 (centres unmarked) [Compound A58, 2-(4-amino-1H-pyrazol-3-yl)-5-methyl-7-(1-phenethyl)furo[3,2-c]pyridin-4(5H)-one]	0.1 to 1	≤ 0.01
Cc1ccc(C(C)(C)c2cn(C)c(=O)c3[nH]c(-c4cnn(C5COC5)c4)cc23)cc1 [Compound A69, 6-methyl-2-(1-(oxetan-3-yl)-1H-pyrazol-4-yl)-4-(2-(p-tolyl)propan-2-yl)-1,6-dihydro-7H-pyrrolo[2,3-c]pyridin-7-one]	0.1 to 1	0.01 to 0.1
Cn1cc(Oc2ccccc2)c2cc(-c3cnn(C4COC4)c3)[nH]c2c1=O [Compound A68, 6-methyl-2-(1-(oxetan-3-yl)-1H-pyrazol-4-yl)-4-phenoxy-1,6-dihydro-7H-pyrrolo[2,3-c]pyridin-7-one]	0.1 to 1	0.01 to 0.1
CC(c1ccccc1)c1cn(C)c(=O)c2[nH]c(-c3cncnc3)cc12 (centres unmarked) [Compound A45]	0.01 to 0.1	≤ 0.01
Cc1ccc(C2CCC(=O)N2c2cn(C)c(=O)c3[nH]c(C(=O)Nc4cn[nH]c4)cc23)cc1 (centres unmarked) [Compound A54]	0.1 to 1	0.01 to 0.1
CC(c1ccc(F)cc1)c1cn(C)c(=O)c2[nH]c(-c3cn[nH]c3)cc12 (centres unmarked) [Compound A19, 4-(1-(4-fluorophenyl)ethyl)-6-methyl-2-(1H-pyrazol-4-yl)-1,6-dihydro-7H-pyrrolo[2,3-c]pyridin-7-one]	0.1 to 1	≤ 0.01
CCNC(=O)n1cc2c(Cc3ccccc3)cn(C)c(=O)c2c1 [Compound A3, 7-benzyl-N-ethyl-5-methyl-4-oxo-4,5-dihydro-2H-pyrrolo[3,4-c]pyridin-2-carboxamide]	0.1 to 1	0.01 to 0.1
CCNC(=O)c1cc2c(-c3nc4ncccc4n3-c3cc(C)c(F)c(C)c3)cn(C)c(=O)c2[nH]1 [Compound A30, N-ethyl-4-(1-(4-fluoro-3,5-dimethylphenyl)-1H-imidazo[4,5-b]pyridin-2-yl)-6-methyl-7-oxo-6,7-dihydro-1H-pyrrolo[2,3-c]pyridin-2-carboxamide]	0.01 to 0.1	≤ 0.01
CCNC(=O)c1cc2c(-c3cc(C(C)(C)O)c4cccnc4c3C)cn(C)c(=O)c2[nH]1 [Compound A40, N-ethyl-4-(5-(2-hydroxypropan-2-yl)-8-methylquinolin-7-yl)-6-methyl-7-oxo-6,7-dihydro-1H-pyrrolo[2,3-c]pyridin-2-carboxamide]	0.01 to 0.1	≤ 0.01
CCNC(=O)c1cc2c(C(O)c3ccc4c(ccn4C)c3)cn(C)c(=O)c2[nH]1 (centres unmarked) [Compound A39, N-ethyl-4-(hydroxy(1-methyl-1H-indol-5-yl)methyl)-6-methyl-7-oxo-6,7-dihydro-1H-pyrrolo[2,3-c]pyridin-2-carboxamide]	0.1 to 1	0.01 to 0.1
CC(c1ccc2ccccc2c1)c1cn(C)c(=O)c2[nH]c(C(=O)Nc3cnn(C)c3)cc12 (centres unmarked) [Compound A13]	0.1 to 1	≤ 0.01
CCNC(=O)c1cc2c(C(C)c3ccccc3)cn(C)c(=O)c2[nH]1 (centres unmarked) [Compound A5, N-ethyl-6-methyl-7-oxo-4-(1-phenethyl)-6,7-dihydro-1H-pyrrolo[2,3-c]pyridin-2-carboxamide]	0.1 to 1	≤ 0.01
6-methyl-7-carbonyl-4-(1-phenylethyl)-N-(1H-pyrazol-4-yl)-6,7-dihydro-1H-pyrrolo[2,3]pyridin-2-carboxamide [Compound A7]	0.1 to 1	≤ 0.01
CC(c1ccc(N2CCN(C)CC2)cc1)c1cn(C)c(=O)c2[nH]c(-c3cnn(C4COC4)c3)cc12 (centres unmarked) [Compound A63, 6-methyl-4-(1-(4-(4-methylpiperazin-1-yl)phenyl)ethyl)-2-(1-(oxetan-3-yl)-1H-pyrazol-4-yl)-1,6-dihydro-7H-pyrrolo[2,3-c]pyridin-7-one]	0.1 to 1	0.01 to 0.1
CCNC(=O)c1cc2c(-c3nc(CO)cn3-c3ccc(C)cc3)cn(C)c(=O)c2[nH]1 [Compound A36, N-ethyl-4-(4-(hydroxymethyl)-1-(p-tolyl)-1H-imidazol-2-yl)-6-methyl-7-oxo-6,7-dihydro-1H-pyrrolo[2,3-c]pyridin-2-carboxamide]	0.1 to 1	0.01 to 0.1
CC(c1ccc(O)cc1)c1cn(C)c(=O)c2[nH]c(-c3cnn(C4COC4)c3)cc12 (centres unmarked) [Compound A72, 4-(1-(4-hydroxyphenyl)ethyl)-6-methyl-2-(1-(oxetan-3-yl)-1H-pyrazol-4-yl)-1,6-dihydro-7H-pyrrolo[2,3-c]pyridin-7-one]	0.1 to 1	0.01 to 0.1
CC(c1cccc(Cl)c1F)c1cn(C)c(=O)c2[nH]c(-c3cnn(C4COC4)c3)cc12 (centres unmarked) [Compound A75, 4-(1-(3-chloro-2-fluorophenyl)ethyl)-6-methyl-2-(1-(oxetan-3-yl)-1H-pyrazol-4-yl)-1,6-dihydro-7H-pyrrolo[2,3-c]pyridin-7-one]	0.1 to 1	≤ 0.01
CCNC(=O)n1cc2c(C(OC)c3ccccc3)cn(C)c(=O)c2c1 (centres unmarked) [Compound A4, N-ethyl-7-(methoxy(phenyl)methyl)-5-methyl-4-oxo-4,5-dihydro-2H-pyrrolo[3,4-c]pyridin-2-carboxamide]	0.1 to 1	0.01 to 0.1
CCNC(=O)c1cc2c(-c3nc4ncccc4n3-c3c(C)cccc3C)cn(C)c(=O)c2[nH]1 [Compound A31, 4-(1-(2,6-dimethylphenyl)-1H-imidazo[4,5-b]pyridin-2-yl)-N-ethyl-6-methyl-7-oxo-6,7-dihydro-1H-pyrrolo[2,3-c]pyridin-2-carboxamide]	0.01 to 0.1	≤ 0.01
CCNC(=O)c1cc2c(Cc3ccccc3)cn(C)c(=O)c2[nH]1 [Compound A10, 4-benzyl-N-ethylamino-6-methyl-7-oxo-6,7-dihydro-1H-pyrrolo[2,3-c]pyridin-2-carboxamide]	0.1 to 1	0.01 to 0.1
CC(c1ccccc1)c1cn(C)c(=O)c2[nH]c(C(=O)NC3CC3)cc12 (centres unmarked) [Compound A8, N-cyclopropyl-6-methyl-7-oxo-4-(1-phenethyl)-6,7-dihydro-1H-pyrrolo[2,3-c]pyridin-2-carboxamide]	0.1 to 1	≤ 0.01
CC(c1ccccc1)c1cn(C)c(=O)c2cc(-c3cnn(C4COC4)c3)oc12 (centres unmarked) [Compound A59, 5-methyl-2-(1-(oxetan-3-yl)-1H-pyrazol-4-yl)-7-(1-phenethyl)furo[3,2-c]pyridin-4(5H)-one]	0.1 to 1	0.01 to 0.1
CC(c1ccccc1)c1cn(C)c(=O)c2c(C(=O)O)c(-c3cnn(C)c3)oc12 (centres unmarked) [Compound A60, 5-methyl-2-(1-methyl-1H-pyrazol-4-yl)-4-oxo-7-(1-phenethyl)-4,5-dihydrofuro[3,2-c]pyridin-3-carboxylic acid]	0.1 to 1	0.01 to 0.1
